Where “and” joins values, the source holds several entries; their conditions need not be identical. Equal entries are not always repeated.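 Grown in 96-well plates, cells were treated for 48 hours with each compound at five concentrations. Insufficient inhibition: endpoint recorded as highest concentration tested. At the GI50, growth is halved. TGI is the concentration that stops growth completely.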

Assay in all cases: NCI anticancer screen, dose series, 48 h
In assay [1] the test system is TK-10 renal.
Assay [2] relates to HCT-15 colon.
The subject of assay [3] is KM12 colon.
The subject of assay [4] is SK-OV-3 ovarian.
Assay [5] concerns OVCAR-3 ovarian.
Assay [6] has as its system CCRF-CEM leukemia.
Assay [7] concerns EKVX NSCLC.
In assay [8] the test system is HOP-92 NSCLC.

Take `CCCCCCCCCC1C(C)c2c([nH]c3ccccc23)C2C(=O)N(c3ccccc3)C(=O)C21` (stereo not drawn): the TGI is 73.5 µM in assay [1]; 23 µM in assay [2]; 16.2 µM in assay [3]; 33.5 µM in assay [4]; 10.8 µM in assay [5]; 8.05 µM in assay [6]. Further, in assay [7], the TGI is over 100 µM.
Take `O=C(O)CCCCCO`: the TGI in assay [1], in assay [2], in assay [3], in assay [4], in assay [5] and in assay [6] was over 100 µM in each case. Besides, the TGI in assay [7] and in assay [8] was over 100 µM throughout.
For `Nc1nc(N)c(N=O)c(Nc2ccc(I)cc2)n1`, the TGI in assay [1] was 62.1 µM; in assay [2], 96.7 µM; in assay [3], over 100 µM; in assay [4] it was 39.2 µM; in assay [5], 43.7 µM; in assay [6] it was 89.9 µM. This compound also yielded a TGI in assay [7] of over 100 µM.
For `COc1cc(C(=O)C/C(CCC(=O)Nc2ccc(Cl)cc2Cl)=N/NC(=O)C(N)=O)ccc1O`, the TGI in assay [1], in assay [2], in assay [3], in assay [4], in assay [5] and in assay [6] was over 100 µM in each case. In addition, the TGI in assay [7] and in assay [8] was over 100 µM in each case.
As for `Cc1c(C(=O)/C=C/c2ccccc2Cl)[n+](=O)c2ccccc2n1[O-]`, the TGI in assay [2] came out at 21.7 µM; in assay [3], 27.3 µM; in assay [4] it was 35.7 µM; in assay [5], 29.4 µM; in assay [7], 31.1 µM; in assay [8], 28.7 µM.
As to `O=C(CC(=O)Nc1ccccc1O)Nc1ccccc1O`, the TGI in assay [1] was over 100 µM; in assay [2], 21.8 µM; in assay [3] it was over 100 µM; in assay [4], over 100 µM; in assay [5], 46 µM; in assay [6], over 100 µM. The TGI in assay [7] and in assay [8] was over 100 µM throughout.
Regarding `CCOC(=O)C(Cc1ccccc1)NC(=O)OC(C)(C)C` (stereo not drawn), the TGI in assay [1], in assay [2], in assay [3], in assay [4], in assay [5] and in assay [6] was over 100 µM throughout. The compound further came in with a TGI in assay [8] of over 100 µM.
For `CC1=C(C(=O)CC(=O)C(=O)Nc2ccccc2)Sc2ccccc2N1`, the TGI in assay [2], in assay [3], in assay [4], in assay [5], in assay [6] and in assay [7] was over 100 µM each time. Moreover, the TGI in assay [8] was over 100 µM.
As to `Nc1ncnc2c(C3OC(CO)C(O)C3O)scc12` (stereo not drawn), the GI50 in assay [1] was 0.0186 µM; in assay [7], 0.269 µM. Besides, the TGI in assay [1] is 4.01 µM and 4.24 µM; in assay [2], 0.584 µM and 0.14 µM; in assay [3] it was 0.026 µM; in assay [4], 0.0357 µM and 0.075 µM; in assay [5], 0.0287 µM; in assay [6], 4.88 µM and 1.56 µM. In addition, the TGI worked out at 4.29 µM in assay [7] and 0.529 µM in assay [8].
As for `CCOC(=O)N1N=NC2C3OC(C[C@@]3(C#N)OC(C)=O)[C@H]21` (stereo partly drawn), the TGI in assay [1], in assay [2], in assay [3], in assay [4], in assay [5] and in assay [6] was over 100 µM each time. In addition, the TGI in assay [7] and in assay [8] was over 100 µM in each case.
For `COc1cc2ccnc(-c3c4ccccc4c(N)c4c(OC)c(OC)ccc34)c2cc1OC`, the TGI in assay [1] turned out to be 22.2 µM; in assay [3] it was 11.3 µM; in assay [4] it was 20.4 µM; in assay [6], 14.2 µM; in assay [7], 24.2 µM; in assay [8], 9.35 µM.
Regarding `CCC[CH2][Ge]([CH2]CCC)([CH2]CCC)[O]C(=O)C(OC)c1ccccc1` (stereo not drawn), the GI50 in assay [1] is over 91.9 µM; in assay [2] it was 9.52 µM; in assay [3] it was 26.4 µM; in assay [4] it was over 94.2 µM; in assay [5], 11.1 µM; in assay [6] it was 2.09 µM. The GI50 is 16.4 µM in assay [7] and 9.53 µM in assay [8]. Further, the TGI in assay [1] was over 100 µM; in assay [2], 32.4 µM; in assay [3], over 100 µM; in assay [4] it was over 100 µM; in assay [5], over 70.2 µM; in assay [6], over 100 µM. For the same compound, the TGI was over 100 µM in assay [7] and 98.3 µM in assay [8].
On to `COc1c(NC(=O)CC(C)=O)[c]([Hg][O]C(C)=O)c(OC)c(Cl)[c]1[Hg][O]C(C)=O`, for which the GI50 was 12.8 µM in assay [1]; 14 µM in assay [2]; 13.8 µM in assay [3]; 17.2 µM in assay [4]; 13.3 µM in assay [5]; 4.8 µM in assay [6]. In addition, the GI50 in assay [7] is 22.3 µM; in assay [8] it was 4.13 µM. The TGI is 25.3 µM in assay [1]; 28.8 µM in assay [2]; 26.7 µM in assay [3]; 31.1 µM in assay [4]; 26 µM in assay [5]; 28.5 µM in assay [6]. Moreover, the TGI was 41.4 µM in assay [7] and 11.6 µM in assay [8].
For the compound `NC(=S)NNC(=O)CCC(=O)Nc1ccc(Cl)cc1Cl`, the TGI in assay [1], in assay [2], in assay [3], in assay [4], in assay [5] and in assay [6] was over 100 µM each time. The compound further showed a TGI in assay [8] of over 100 µM.
On to `NCCCC1NC(=O)/C(=C(O)/C=C/C2CCC[C@@H]2CC2SCCS2)C1=O` (stereo partly drawn), for which the TGI in assay [1], in assay [3], in assay [4], in assay [5], in assay [6] and in assay [7] was over 100 µM in each case. In assay [8], this compound gave a TGI of 99.8 µM.

Values taken from PubChem BioAssay (NCI).
